Assay results reported in ChEMBL document CHEMBL1201862, “PubChem BioAssay data set” (2004).
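Interpolation was linear, between the two tested concentrations surrounding the appropriate level; five concentrations were tested over 48 hours in 96-well plates. Abbreviation: GI50, concentration required for 50% inhibition of growth.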 Activity calls are given as the source filed them. No stated cut-off is given here; in the data, active = GI50 up to about 1.1 µM and inactive = higher.

Tests used:
Test in all cases: inhibition of tumour cell growth, NCI panel, 48 h
[1] = tested on: UACC-62
[2] = tested on: Hs-578T
[3] = tested on: OVCAR-3
[4] = tested on: NCI/ADR-RES
[5] = tested on: HOP-92
[6] = tested on: CCRF-CEM
[7] = tested on: SK-MEL-5
[8] = tested on: SK-MEL-2
[9] = tested on: HOP-62
[10] = tested on: SK-MEL-28
[11] = tested on: SF-295
[12] = tested on: HCC 2998
[13] = tested on: KM12
[14] = tested on: MDA-N
[15] = tested on: 786-0
[16] = tested on: HL-60
[17] = tested on: BT-549
[18] = tested on: DU-145
[19] = tested on: SF-539
[20] = tested on: SW-620
[21] = tested on: IGROV-1
[22] = tested on: COLO 205
[23] = tested on: HCT-116
[24] = tested on: SR
[25] = tested on: NCI-H23
[26] = tested on: PC-3
[27] = tested on: A498
[28] = tested on: SK-OV-3
[29] = tested on: ACHN
[30] = tested on: MCF7
[31] = tested on: TK-10
[32] = tested on: MDA-MB-231
[33] = tested on: OVCAR-8
[34] = tested on: SF-268
[35] = tested on: M14
[36] = tested on: SNB-75
[37] = tested on: CAKI-1
[38] = tested on: A549
[39] = tested on: LOX IMVI
[40] = tested on: NCI-H460
[41] = tested on: HCT-15
[42] = tested on: NCI-H522
[43] = tested on: U-251
[44] = tested on: K562
[45] = tested on: SNB-19
[46] = tested on: T47D
[47] = tested on: SN12C
[48] = tested on: RPMI-8226
[49] = tested on: OVCAR-5
[50] = tested on: MDA-MB-435
[51] = tested on: UO-31
[52] = tested on: UACC-257
[53] = tested on: EKVX
[54] = tested on: HT-29
[55] = tested on: Malme-3M
[56] = tested on: MOLT-4

## CCC(C)C(=O)OCC(=O)c1ccc(-c2ccccc2)cc1 (stereo unspecified)
[1]
  GI50: 79.3 µM (inactive)
[2]
  GI50: 45.9 µM (inactive)
[3]
  GI50: 37.8 µM (inactive)
[4]
  GI50: 76.9 µM (inactive)
[5]
  GI50: > 100 µM (inactive)
[6]
  GI50: 35 µM (inactive)
[7]
  GI50: 24.7 µM (inactive)
[8]
  GI50: 41.6 µM (inactive)
[9]
  GI50: > 100 µM (inactive)
[10]
  GI50: 72.9 µM (inactive)
[11]
  GI50: 59.8 µM (inactive)
[12]
  GI50: > 100 µM (inactive)
[13]
  GI50: 28.1 µM (inactive)
[14]
  GI50: 45.7 µM (inactive)
[15]
  GI50: > 100 µM (inactive)
[16]
  GI50: > 100 µM (inactive)
[17]
  GI50: 45.4 µM (inactive)
[18]
  GI50: 52.2 µM (inactive)
[19]
  GI50: > 100 µM (inactive)
[20]
  GI50: 53.6 µM (inactive)
[21]
  GI50: > 100 µM (inactive)
[22]
  GI50: > 100 µM (inactive)
[23]
  GI50: 68.7 µM (inactive)
[24]
  GI50: 31.6 µM (inactive)
[25]
  GI50: 63.7 µM (inactive)
[26]
  GI50: 63 µM (inactive)
[27]
  GI50: 32.7 µM (inactive)
[28]
  GI50: > 100 µM (inactive)
[29]
  GI50: > 100 µM (inactive)
[30]
  GI50: 44.8 µM (inactive)
[31]
  GI50: 66.4 µM (inactive)
[32]
  GI50: 78.9 µM (inactive)
[33]
  GI50: 79.3 µM (inactive)
[34]
  GI50: 41.4 µM (inactive)
[35]
  GI50: 89.7 µM (inactive)
[36]
  GI50: 80.7 µM (inactive)
[37]
  GI50: 42.7 µM (inactive)
[38]
  GI50: 44.1 µM (inactive)
[39]
  GI50: 34.7 µM (inactive)
[40]
  GI50: > 100 µM (inactive)
[41]
  GI50: 18.1 µM
[42]
  GI50: 22.8 µM (inactive)
[43]
  GI50: 50.5 µM (inactive)
[44]
  GI50: 41 µM (inactive)
[45]
  GI50: 80.7 µM (inactive)
[46]
  GI50: 22.3 µM (inactive)
[47]
  GI50: > 100 µM (inactive)
[48]
  GI50: 24.5 µM (inactive)
[49]
  GI50: > 100 µM (inactive)
[50]
  GI50: 99.1 µM (inactive)
[51]
  GI50: > 100 µM (inactive)
[52]
  GI50: 27.2 µM (inactive)
[53]
  GI50: 25.6 µM (inactive)
[54]
  GI50: 34.6 µM (inactive)
[55]
  GI50: 29.1 µM (inactive)
[56]
  GI50: 46.9 µM (inactive)
